In brackets after ≈: the same amount, converted by molar mass. Blank lines part the entries; values can stand above or below the compound they belong to.
How the values were obtained:
[1] = 0.1 M NaOH, used as standard; no reference given; cited from earlier work
[2] = Photophysical properties (UV–Vis absorption and fluorescence spectra); format: physicochemical; details: for λabs absorption maximum wavelength / ∆λ stokes shifts (λem − λabs) / λem emission maximum wavelength / Φf fluorescence quantum yields: 2 µM; for λem emission maximum wavelength: excited at the maximum absorption wavelength; for Φf fluorescence quantum yields: n = 3, relative to fluorescein in 0.1 M NaOH
Procedure: All UV–Vis absorption and fluorescence spectra were recorded on a UV–Vis Spectrophotometer (Agilent Technologies Cary 300, Santa Clara, CA, USA) and a Spectrofluorometer (PerkinElmer LS55, Waltham, MA, USA), respectively. In both experiments, the stock solutions of chalcones 3a–f were prepared as 0.5 mM in DMSO. The appropriate amount of the stock solution was added to DMSO, MeOH, and 0.01 M PBS buffer (pH 7.4) with 3% Tween 80 (3 mL) to obtain the final concentration of 2 µM in the testing solutions. For fluorescence experiments, the emission spectra were recorded at the maximum absorbance wavelength of each compound. The fluorescent quantum yields (Φf) were calculated relative to fluorescein in 0.1 M NaOH as a standard (Φf = 0.95).

[3] = pH effect on fluorescence emission; format: physicochemical; details: pH range from 2 to 12, 2 µM, 3% Tween 80
Procedure: Chalcones 3a–f (2 µM) were dissolved in commercial pH 1–12 buffers purchased from Merck (St. Louis, MO, USA) (glycine/NaCl/HCl for pH 1, citric acid/NaOH/HCl for pH 2–6, Na2HPO4/KH2PO4 for pH 7, boric acid/ KCl/NaOH for pH 8–11, Na3PO4/NaOH for pH 12) in the presence of Tween 80 (3% w/w). The actual pH values of the final buffer solutions were measured by a pH meter. The resulting solutions were examined by a Spectrofluorometer (PerkinElmer LS55) at the maximum absorbance wavelength of each compound.

[4] = Photo-stability test (photobleaching under 250 W blue light); format: physicochemical; details: DMSO, 250 W blue light (380–500 nm), after 30 min irradiation
Procedure: Chalcones 3a–f were dissolved in DMSO at the final concentration of 1 × 10^−6 M for measuring absorption and emission intensity. Then, 3a–f were irradiated at 250 W (blue-lamp) at a distance of 75 cm. The UV–Visible absorption and fluorescence spectra of the solutions were measured at different time points including 0, 1, 5, 10, 15, 20, and 30 min. Photo-stability was reported in terms of photobleaching absorption and emission (%) calculated from the change of absorption and emission intensity at the absorption and emission maxima before and after irradiation.

[5] = tested on: HEK-293; assay: Cell viability MTT assay, normal cells; format: cell-based; details: Homo sapiens, HEK293; HEK-293, 24 h, MTT; read-out: IC50
Procedure: (§1) For fluorescence imaging of living cells, human embryonic kidney 293 (HEK-293, ATCC) and human hepatoma cancer cell (HepG2, ATCC) were cultured in Dulbecco′s Modified Eagle′s Medium (DMEM, HyClone) supplemented with 10% Fetal Bovine Serum (FBS, Gibco, Carlsbad, CA, USA) and 1% Penicillin/Streptomycin Solution 100X (Corning, Corning, NY, USA). All cells were cultured in a humidified incubator at 37 °C with 5% CO2. HEK-293 and HepG2 cells, approximately 1 × 10^4 cells, were seeded on 8-well chambered cover glasses (LabTek, Nunc, Carlsbad, CA, USA) and incubated in complete medium for 24 h. After that, the cells were treated with 5 μM stock solutions of 3a–f in DMSO/cell culture medium containing 10% FBS (0.25% DMSO), for 0, 1, 3, and 6 h. Then, the cells were washed twice with 0.01 M PBS before being visualized under a Laser-Scanning Confocal Microscope (Nikon A1Rsi) with a 60× oil immersion objective lens and living cell workstation with the excitation channel at 488 nm.
(§2) The cells were seeded on a 96-well plate, approximately 7 × 10^3 cells per well, and incubated in complete medium for 24 h. After that, the cells were treated with 0, 1, 5, 10, 20, and 50 μM of chalcones 3a–f, and culturing continued for 24 h. After incubation, the cells were washed three times with 10 mM PBS and treated with […] of methylthiazolyldiphenyl-tetrazolium bromide (MTT reagent, 0.5 mg mL^−1, Sigma-Aldrich, St. Louis, MO, USA) for 2–3 h. After medium removal, DMSO was added to dissolve the formazan product, and cell viability was determined by UV–Vis absorption of the resulting formazan at a wavelength of 560 nm in a microplate reader (BMG Labtech/SPECTROstar Nano, Ortenberg, Germany).

[6] = tested on: HepG2; assay: Cell viability MTT assay, cancer cells; format: cell-based; details: Homo sapiens; HepG2, 24 h, MTT; read-out: IC50
Procedure: as §1, §2

[7] = tested on: E. coli 780; assay: Antibacterial activity test (MIC, MBC, growth curve); format: cell-based, Escherichia coli
Procedure: (§3) All bacteria strains were obtained from the Thailand Institute of Scientific and Technological Research (TISTR). The antibacterial activity of chalcones 3a–f was determined by the minimal inhibitory concentration (MIC) and the minimal bactericidal concentration (MBC) against the Gram-positive (S. aureus 1466, TISTR 1466) and Gram-negative (E.coli 780, TISTR 780) bacteria. The stocks of chalcones 3a–f (0.60 mg/mL) were serially diluted in Muller–Hinton (MH) broth to obtain concentrations in the range of 250–1000 µM. The solutions of chalcones 3a–f (100 µL) at different concentrations were added in the culture of the tested bacteria (100 µL) at a concentration of 1 × 10^6 colony-forming units/mL (CFU/mL) in MH broth at 37 °C with shaking at 80 rpm. The bacterial numbers were determined by measuring the optical density at 600 nm by a UV–Vis spectrometer. […] To determine the MBC values, the bacterial cultures (10 µL) containing the solutions of chalcones 3a–f at MIC and three higher concentrations were dropped on MH agar plates.

[8] = tested on: S. aureus 1466; assay: as above; format: cell-based, Staphylococcus aureus
Procedure: as §3

Compound: O=C1OC2(c3ccc(O)cc3Oc3cc(O)ccc32)c2ccccc21 [fluorescein]
Φf fluorescent quantum yield of the standard [1]: 0.95

ε molar absorptivity ([2]; DMSO): 46000 M⁻¹ cm⁻¹
λabs absorption maximum wavelength ([2]; DMSO): 422 nm
∆λ stokes shifts (λem − λabs) ([2]; DMSO): 94 nm
λem emission maximum wavelength ([2]; DMSO): 516 nm
Φf fluorescence quantum yields ([2]; DMSO): 0.10 ± 0.02
ε molar absorptivity ([2]; MeOH): 37000 M⁻¹ cm⁻¹
λabs absorption maximum wavelength ([2]; MeOH): 423 nm
∆λ stokes shifts (λem − λabs) ([2]; MeOH): 132 nm
λem emission maximum wavelength ([2]; MeOH): 555 nm
Φf fluorescence quantum yields ([2]; MeOH): 0.024 ± 0.015
ε molar absorptivity ([2]; PBS (3%w/w tween 80)): 44000 M⁻¹ cm⁻¹
λabs absorption maximum wavelength ([2]; PBS (3%w/w tween 80)): 422 nm
∆λ stokes shifts (λem − λabs) ([2]; PBS (3%w/w tween 80)): 120 nm
λem emission maximum wavelength ([2]; PBS (3%w/w tween 80)): 542 nm
Φf fluorescence quantum yields ([2]; PBS (3%w/w tween 80)): 0.17 ± 0.03
fluorescence emission [3]: Higher emission peaks
% photobleaching of absorbance [4]: 51%
% photobleaching of fluorescence [4]: 30%
IC50 [6]: 56 µM
MIC ([7]; Escherichia coli, E. coli 780, mean ± SD of three independent experiments, read-out: MIC): 250 ± 0.01 µM (≈ 73.6 µg/mL)
MIC ([8]; Staphylococcus aureus, S. aureus 1466, mean ± SD of three independent experiments, read-out: MIC): 250 ± 0.01 µM (≈ 73.6 µg/mL)
Compound: CN(C)c1ccc(/C=C/C(=O)c2ccc(N(C)C)cc2)cc1 [3d]
IC50 [5]: > 100 µM
bacterial growth (OD600 growth curve) ([7]; E. coli 780, increasing concentration, 24 h): significantly inhibited
MBC ([7]; Escherichia coli, E. coli 780, mean ± SD of three independent experiments, read-out: MBC): 375 ± 0.01 µM (≈ 110 µg/mL)
bacterial growth (OD600 growth curve) ([8]; S. aureus 1466, increasing concentration, 24 h): significantly inhibited
MBC ([8]; Staphylococcus aureus, S. aureus 1466, mean ± SD of three independent experiments, read-out: MBC): 1000 ± 0.01 µM (≈ 294 µg/mL)

Reference: PMC8156934, “Photophysical Study and Biological Applications of Synthetic Chalcone-Based Fluorescent Dyes” (Molecules, 2021)
